In patent publication US20250235566A1, “[…]-[…] LABELING PRECURSORS AND RA[…] THEREFROM” (Medianezia GmbH, priority 2021, published 2025):

How the values were obtained:
Format in all cases: biochemical
[1] = molecular target: T1, DPP8 (dipeptidylpeptidase VIII) (Homo sapiens, UniProt Q6V1X1); experiment: DPP8 IC50 measurement with Ala-Pro-pNA substrate; conditions: Ala-Pro-pNA 300 μM, pH=7.4
T1 construct: made in house
Experimental: (§1) The rhFAP (fibroblast activation protein), PREP (prolyl endopeptidase), DPP4 (dipeptidylpeptidase IV), DPP8 (dipeptidylpeptidase VIII) and DPP 9 (dipeptidylpeptidase IX) enzymes were expressed before use in the in vitro assays and then purified.
(§2) IC50 measurements were conducted with the Infinite 200 instrument (Tecan Group Ltd.) and evaluated with the Magellan software.
(§3) The data were evaluated by GraFit 7 using a non-linear fit according to the following equation: […]
(§4) where y is the remaining enzyme activity compared to the non-inhibited sample, xis the final inhibitor concentration used in the assay, s is the slope factor and IC50 is the […] inhibitory concentration.
At least 8 concentrations of the FAP inhibitors examined were examined, with always the same DMSO concentration. The inhibitors were pre-incubated at 37° C. for 15 min before the Ala-Pro-pNA substrate was added. The release kinetics of pNA were measured at a wavelength of λex=405 nm for at least 10 min.

[2] = molecular target: T2, rhFAP (fibroblast activation protein) (Homo sapiens, UniProt Q12884); experiment: FAP IC50 measurement with Z-Gly-Pro-AMC substrate; conditions: Z-Gly-Pro-AMC 50 μM, pH=8, 15 min pre-incubation at 37° C.
T2 construct: made in house
T2 sequence (Q12884 1-760): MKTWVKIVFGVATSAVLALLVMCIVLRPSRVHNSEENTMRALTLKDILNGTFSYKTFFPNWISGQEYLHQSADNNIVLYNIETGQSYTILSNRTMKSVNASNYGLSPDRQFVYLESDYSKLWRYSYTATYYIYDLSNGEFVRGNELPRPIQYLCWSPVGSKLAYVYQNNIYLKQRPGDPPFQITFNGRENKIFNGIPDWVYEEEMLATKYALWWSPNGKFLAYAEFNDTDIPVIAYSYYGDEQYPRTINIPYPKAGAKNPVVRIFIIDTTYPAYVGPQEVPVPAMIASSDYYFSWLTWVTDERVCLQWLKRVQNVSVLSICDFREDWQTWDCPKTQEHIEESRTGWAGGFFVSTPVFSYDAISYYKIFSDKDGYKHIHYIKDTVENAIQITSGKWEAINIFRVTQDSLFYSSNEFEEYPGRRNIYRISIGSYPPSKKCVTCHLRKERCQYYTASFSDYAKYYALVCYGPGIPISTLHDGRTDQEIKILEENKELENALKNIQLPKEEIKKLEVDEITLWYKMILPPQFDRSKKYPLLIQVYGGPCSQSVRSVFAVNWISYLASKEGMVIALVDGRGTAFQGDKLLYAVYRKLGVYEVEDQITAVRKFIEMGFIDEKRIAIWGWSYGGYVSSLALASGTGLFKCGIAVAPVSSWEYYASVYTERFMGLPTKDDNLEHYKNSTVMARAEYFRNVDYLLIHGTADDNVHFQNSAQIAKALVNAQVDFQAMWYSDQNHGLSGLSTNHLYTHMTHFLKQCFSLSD
Experimental: as §1, §2, §3, §4
(§5) 8 concentrations of the FAP inhibitors examined were examined, with always the same DMSO concentration. The inhibitors were pre-incubated at 37° C. for 15 min before the Z-Gly-Pro-AMC substrate was added. The release kinetics of AMC were measured at an excitation wavelength λex=380 nm and emission wavelength Δem=465 nm for at least 10 min.

[3] = molecular target: T3, PREP (prolyl endopeptidase) (Homo sapiens, UniProt P48147); experiment: PREP IC50 measurement with N-succinyl-Gly-Pro-AMC substrate; conditions: N-succinyl-Gly-Pro-AMC 250 μM, pH=7.4
T3 construct: made in house
T3 sequence (P48147 1-710): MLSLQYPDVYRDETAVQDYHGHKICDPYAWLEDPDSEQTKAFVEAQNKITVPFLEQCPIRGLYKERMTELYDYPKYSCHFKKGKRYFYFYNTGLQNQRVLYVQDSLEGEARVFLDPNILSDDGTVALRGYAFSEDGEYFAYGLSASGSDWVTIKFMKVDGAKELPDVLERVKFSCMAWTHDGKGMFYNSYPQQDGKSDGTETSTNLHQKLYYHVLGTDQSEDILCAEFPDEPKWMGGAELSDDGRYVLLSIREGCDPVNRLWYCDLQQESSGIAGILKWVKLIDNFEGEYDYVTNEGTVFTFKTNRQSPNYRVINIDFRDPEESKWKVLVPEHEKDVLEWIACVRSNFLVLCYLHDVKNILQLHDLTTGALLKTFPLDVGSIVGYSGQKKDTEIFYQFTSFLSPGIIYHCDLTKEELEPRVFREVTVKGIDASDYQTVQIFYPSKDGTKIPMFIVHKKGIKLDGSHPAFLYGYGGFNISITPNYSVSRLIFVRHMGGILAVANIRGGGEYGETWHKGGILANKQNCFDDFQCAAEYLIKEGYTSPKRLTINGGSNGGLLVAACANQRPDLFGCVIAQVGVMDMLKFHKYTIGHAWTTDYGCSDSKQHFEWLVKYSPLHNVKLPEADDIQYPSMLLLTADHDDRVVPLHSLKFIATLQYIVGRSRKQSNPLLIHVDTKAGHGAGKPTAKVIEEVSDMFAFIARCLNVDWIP
Experimental: as §1, §2, §3, §4
as §5, with “N-succinyl-Gly-Pro-AMC” for “Z-Gly-Pro-AMC”, “λem=465” for “Δem=465”

[4] = molecular target: T4, DPP4 (dipeptidylpeptidase IV) (Homo sapiens, UniProt P27487); experiment: DPP4 IC50 measurement with Ala-Pro-pNA substrate; conditions: Ala-Pro-pNA 25 μM, pH=7.4
T4 construct: made in house
Experimental: as §1, §2, §3, §4
(§6) At least 8 concentrations of the FAP inhibitors examined were examined, with always the same DMSO concentration. The inhibitors were pre-incubated at 37° C. for 15 min before the Ala-Pro-pNA substrate was added.

[5] = molecular target: T5, DPP 9 (dipeptidylpeptidase IX) (Homo sapiens, UniProt Q86TI2); experiment: DPP9 IC50 measurement with Ala-Pro-pNA substrate; conditions: Ala-Pro-pNA 150 μM, pH=7.4
T5 construct: made in house
Experimental: as §1, §2, §3, §4, §6

T4 sequence (P27487 whole entry, species assumed): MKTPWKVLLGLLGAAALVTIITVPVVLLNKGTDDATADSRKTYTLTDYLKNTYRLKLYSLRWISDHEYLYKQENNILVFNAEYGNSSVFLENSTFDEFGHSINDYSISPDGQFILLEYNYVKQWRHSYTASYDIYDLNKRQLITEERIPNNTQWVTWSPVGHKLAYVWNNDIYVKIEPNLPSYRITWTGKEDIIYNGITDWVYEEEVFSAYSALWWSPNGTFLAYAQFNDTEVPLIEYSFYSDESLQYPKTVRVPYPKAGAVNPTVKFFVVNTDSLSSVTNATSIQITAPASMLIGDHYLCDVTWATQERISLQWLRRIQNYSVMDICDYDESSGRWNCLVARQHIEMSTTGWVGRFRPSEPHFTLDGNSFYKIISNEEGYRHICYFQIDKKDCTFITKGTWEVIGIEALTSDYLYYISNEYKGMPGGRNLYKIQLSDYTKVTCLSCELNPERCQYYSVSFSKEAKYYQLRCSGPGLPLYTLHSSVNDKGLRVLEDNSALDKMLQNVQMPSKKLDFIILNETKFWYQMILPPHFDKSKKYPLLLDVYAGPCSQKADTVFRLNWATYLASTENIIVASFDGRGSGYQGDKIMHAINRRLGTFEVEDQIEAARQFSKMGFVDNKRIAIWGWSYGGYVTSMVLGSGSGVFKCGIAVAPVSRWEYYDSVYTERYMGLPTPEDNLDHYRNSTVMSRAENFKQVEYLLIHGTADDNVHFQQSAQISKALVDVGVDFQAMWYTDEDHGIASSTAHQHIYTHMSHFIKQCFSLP
T5 sequence (Q86TI2 whole entry, species assumed): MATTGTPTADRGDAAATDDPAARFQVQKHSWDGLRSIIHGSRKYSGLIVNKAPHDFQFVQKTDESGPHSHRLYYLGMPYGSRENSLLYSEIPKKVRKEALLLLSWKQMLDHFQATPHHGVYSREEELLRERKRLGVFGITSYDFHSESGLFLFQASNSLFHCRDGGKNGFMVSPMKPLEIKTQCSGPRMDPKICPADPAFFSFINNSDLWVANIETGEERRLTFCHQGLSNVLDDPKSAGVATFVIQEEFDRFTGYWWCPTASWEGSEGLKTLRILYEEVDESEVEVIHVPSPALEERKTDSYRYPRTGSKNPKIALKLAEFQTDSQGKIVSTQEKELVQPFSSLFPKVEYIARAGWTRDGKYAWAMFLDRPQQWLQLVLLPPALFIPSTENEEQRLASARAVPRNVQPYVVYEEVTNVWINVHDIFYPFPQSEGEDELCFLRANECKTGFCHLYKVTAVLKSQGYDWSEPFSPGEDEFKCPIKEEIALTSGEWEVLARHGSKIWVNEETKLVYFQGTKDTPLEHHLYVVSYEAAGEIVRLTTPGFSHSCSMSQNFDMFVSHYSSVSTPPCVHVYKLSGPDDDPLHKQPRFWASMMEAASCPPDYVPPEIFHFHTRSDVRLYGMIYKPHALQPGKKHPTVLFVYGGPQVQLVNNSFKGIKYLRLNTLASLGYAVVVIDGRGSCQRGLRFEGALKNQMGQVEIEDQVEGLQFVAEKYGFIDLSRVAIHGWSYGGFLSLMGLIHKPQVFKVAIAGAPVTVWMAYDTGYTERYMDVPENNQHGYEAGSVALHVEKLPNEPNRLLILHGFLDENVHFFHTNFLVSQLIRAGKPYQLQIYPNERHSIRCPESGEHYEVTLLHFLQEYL
T1 sequence (Q6V1X1 whole entry, species assumed): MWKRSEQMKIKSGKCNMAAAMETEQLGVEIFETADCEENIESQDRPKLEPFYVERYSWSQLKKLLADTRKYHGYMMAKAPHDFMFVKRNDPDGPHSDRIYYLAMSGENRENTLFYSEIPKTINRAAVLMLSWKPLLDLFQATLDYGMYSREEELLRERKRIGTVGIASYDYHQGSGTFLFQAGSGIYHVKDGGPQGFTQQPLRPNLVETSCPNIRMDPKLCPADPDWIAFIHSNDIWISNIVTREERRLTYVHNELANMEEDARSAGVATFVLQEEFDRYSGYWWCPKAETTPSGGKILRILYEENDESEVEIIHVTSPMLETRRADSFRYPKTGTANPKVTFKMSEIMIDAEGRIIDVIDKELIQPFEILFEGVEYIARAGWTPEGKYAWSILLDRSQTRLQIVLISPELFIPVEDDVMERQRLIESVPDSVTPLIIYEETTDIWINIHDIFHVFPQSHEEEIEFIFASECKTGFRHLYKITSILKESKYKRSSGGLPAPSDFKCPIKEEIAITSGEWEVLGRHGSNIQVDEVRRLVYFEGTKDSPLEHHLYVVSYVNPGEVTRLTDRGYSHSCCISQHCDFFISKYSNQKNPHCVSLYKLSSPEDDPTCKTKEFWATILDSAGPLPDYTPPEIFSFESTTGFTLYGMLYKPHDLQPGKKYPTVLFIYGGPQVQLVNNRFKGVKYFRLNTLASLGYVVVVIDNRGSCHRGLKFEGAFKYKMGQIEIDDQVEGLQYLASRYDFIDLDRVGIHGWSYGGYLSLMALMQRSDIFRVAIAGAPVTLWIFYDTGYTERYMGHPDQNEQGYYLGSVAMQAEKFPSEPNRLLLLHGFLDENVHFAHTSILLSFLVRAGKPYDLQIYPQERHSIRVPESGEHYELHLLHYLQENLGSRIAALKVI

SMILES | IC50 [1] | IC50 [2] | IC50 [3] | IC50 [4] | IC50 [5]
N#C[C@@H]1CC(F)(F)CN1C(=O)CNC(=O)c1ccnc2ccccc12 [UAMC1110, (S)—N-(2-(2-cyano-4,4′-difluoropyrrolidin-1-yl)-2-oxoethyl)quinoline-4-carboxamide, reference compound] | > 10000 nM |  |  |  | 
N#C[C@@H]1CC(F)(F)CN1C(=O)CNC(=O)c1ccnc2ccc(OCCCCNC(=O)CC[C@H](NC(=O)CN3CCN(CC(=O)O)CCN(CC(=O)O)CCN(CC(=O)O)CC3)C(=O)NCCCCOc3ccc4nccc(C(=O)NCC(=O)N5CC(F)(F)C[C@H]5C#N)c4c3)cc12 [DOTA.Glu.(FAPi)2, 2,2′,2″-(10-(2-(((S)-1,5-bis((4-((4-((2-((S)-2-cyano-4,4-difluoropyrrolidin-1-yl)-2-oxoethyl)carbamoyl)quinolin-6-yl)oxy)butyl)amino)-1,5-dioxopentan-2-yl)amino)-2-oxoethyl)-1,4,7,10-tetraazacyclododecan-1,4,7-triyl)triacetic acid] | 1030 ± 180 nM | 0.6 ± 0.04 nM | 1000 ± 140 nM | 540 ± 60 nM | 950 ± 110 nM
CN(CC(=O)O)C1(CCCCC(=O)N[C@@H](CCC(=O)NCCCCOc2ccc3nccc(C(=O)NCC(=O)N4CC(F)(F)C[C@H]4C#N)c3c2)C(=O)NCCCCOc2ccc3nccc(C(=O)NCC(=O)N4CC(F)(F)C[C@H]4C#N)c3c2)CN(CC(=O)O)CCN(CC(=O)O)C1 [DATA^5m.Glu.(FAPi)2, 2,2′-(6-(5-(((S)-1,5-bis((4-((4-((2-((S)-2-cyano-4,4-difluoropyrrolidin-1-yl)-2-oxoethyl)carbamoyl)quinolin-6-yl)oxy)butyl)amino)-1,5-dioxopentan-2-yl)amino)-5-oxopentyl)-6-((carboxymethyl)(methyl)amino)-1,4-diazepane-1,4-diyl)diacetic acid] | 2220 ± 400 nM | 0.71 ± 0.05 nM | 310 ± 60 nM | 1570 ± 60 nM | 770 ± 110 nM
N#C[C@@H]1CC(F)(F)CN1C(=O)CNC(=O)c1ccnc2ccc(OCCCCNC(=O)CC[C@H](NC(=O)CCC(C(=O)O)N3CCN(CC(=O)O)CCN(CC(=O)O)CCN(CC(=O)O)CC3)C(=O)NCCCCOc3ccc4nccc(C(=O)NCC(=O)N5CC(F)(F)C[C@H]5C#N)c4c3)cc12 (stereo partly drawn) [DOTAGA.Glu.(FAPi)2, 2,2′,2″-(10-(4-(((S)-1,5-bis((4-((4-((2-((S)-2-cyano-4,4-difluoropyrrolidin-1-yl)-2-oxoethyl)carbamoyl)quinolin-6-yl)oxy)butyl)amino)-1,5-dioxopentan-2-yl)amino)-1-carboxy-4-oxobutyl)-1,4,7,10-tetraazacyclododecan-1,4,7-triyl)triacetic acid] | 29 ± 4 nM | 0.26 ± 0.04 nM | 590 ± 100 nM | 1190 ± 80 nM | 83 ± 1.5 nM
